“And” between values parts separate entries of the source, which are not always exact repeats. Equal entries are not always repeated. Toxic doses and inconclusive results are not listed. No stated cut-off is given here; in the data, active means T/C of 150% or more; inactive means T/C below 125%.
Test system: L1210 leukemia ip in BDF1 mice, survival T/C
Experiment: NCI In Vivo Anticancer Drug Screen. Data for tumor model L1210 Leukemia (intraperitoneal) in B6D2F1 (BDF1) mice
Details: endpoint: mean survival time, higher = longer survival
Procedure, shortened: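 Survival endpoint. Drug-treated group vs vehicle group, expressed as T divided by C. Tumor passaged by transplantation.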

[1] = dose: 100.0 mg/kg/injection, schedule: Q01DX001 (ip), vehicle: Klucel (hydroxypropylcellulose) (HPC)
[2] = dose: 100.0 mg/kg/injection, schedule: Q01DX009 (ip), vehicle: Klucel (hydroxypropylcellulose) (HPC)
[3] = dose: 100.0 mg/kg/injection, schedule: Q04DX002 (ip), vehicle: Klucel (hydroxypropylcellulose) (HPC)
[4] = dose: 100.0 mg/kg/injection, schedule: Q04DX003 (ip), vehicle: Klucel (hydroxypropylcellulose) (HPC)
[5] = dose: 200.0 mg/kg/injection, schedule: Q01DX001 (ip), vehicle: Klucel (hydroxypropylcellulose) (HPC)
[6] = dose: 200.0 mg/kg/injection, schedule: Q01DX009 (ip), vehicle: Klucel (hydroxypropylcellulose) (HPC)
[7] = dose: 200.0 mg/kg/injection, schedule: Q04DX002 (ip), vehicle: Klucel (hydroxypropylcellulose) (HPC)
[8] = dose: 200.0 mg/kg/injection, schedule: Q04DX003 (ip), vehicle: Klucel (hydroxypropylcellulose) (HPC)
[9] = dose: 400.0 mg/kg/injection, schedule: Q01DX001 (ip), vehicle: Klucel (hydroxypropylcellulose) (HPC)
[10] = dose: 400.0 mg/kg/injection, schedule: Q01DX009 (ip), vehicle: Klucel (hydroxypropylcellulose) (HPC)
[11] = dose: 400.0 mg/kg/injection, schedule: Q04DX002 (ip), vehicle: Klucel (hydroxypropylcellulose) (HPC)
[12] = dose: 400.0 mg/kg/injection, schedule: Q04DX003 (ip), vehicle: Klucel (hydroxypropylcellulose) (HPC)
[13] = dose: 50.0 mg/kg/injection, schedule: Q01DX009 (ip), vehicle: Klucel (hydroxypropylcellulose) (HPC)
[14] = dose: 100.0 mg/kg/injection, schedule: Q01DX001 (ip), vehicle: saline
[15] = dose: 200.0 mg/kg/injection, schedule: Q01DX001 (ip), vehicle: saline
[16] = dose: 400.0 mg/kg/injection, schedule: Q01DX001 (ip), vehicle: saline

Measured: T/C

CN(C(=O)CCC(=O)N(C)c1ccccc1)c1ccccc1
inactive: dose: 100.0 mg/kg/injection, schedule: Q01DX009 (ip), vehicle: saline with Tween-80 97 % of control | dose: 200.0 mg/kg/injection, schedule: Q01DX009 (ip), vehicle: saline with Tween-80 87 % of control

COc1cc([N+](=O)[O-])ccc1NC(=O)OCC(Cl)(Cl)Cl
inactive: [1] 98 % of control | [2] 93 % of control and 92 % of control | [3] 95 % of control and 102 % of control | [4] 99 % of control | [5] 100 % of control | [6] 103 % of control and 92 % of control | [7] 98 % of control and 111 % of control | [8] 94 % of control | [9] 96 % of control | [10] 109 % of control and 88 % of control | [11] 95 % of control and 98 % of control | [12] 105 % of control

CC(=NC1CCCCC1)Nc1ccc(NC(=O)c2ccc(C(=O)Nc3ccc(NC(C)=NC4CCCCC4)cc3)cc2)cc1
inactive: dose: 15.0 mg/kg/injection, schedule: Q01DX Z (ip), vehicle: carboxymethylcellulose (CMC) 92 % of control | dose: 30.0 mg/kg/injection, schedule: Q01DX Z (ip), vehicle: carboxymethylcellulose (CMC) 93 % of control | dose: 60.0 mg/kg/injection, schedule: Q01DX Z (ip), vehicle: carboxymethylcellulose (CMC) 96 % of control

COc1ccccc1NC(=S)N(C)C
inactive: dose: 100.0 mg/kg/injection, schedule: Q04DX003 (ip), vehicle: saline with Tween-80 96 % of control | dose: 200.0 mg/kg/injection, schedule: Q04DX003 (ip), vehicle: saline with Tween-80 93 % of control

CCOC(=O)C(=Cc1ccc(Cl)cc1)C(=O)OCC
inactive: dose: 25.0 mg/kg/injection, schedule: Q01DX009 (ip), vehicle: Klucel (hydroxypropylcellulose) (HPC) 95 % of control | [13] 97 % of control | [2] 102 % of control | [4] 107 % of control | [8] 98 % of control | [12] 100 % of control

COc1ccc2[nH]c3c(c2c1)CSc1ccccc1-3
inactive: [2] 110 % of control | [6] 104 % of control | [10] 94 % of control

CC(=O)OCC(COC(C)=O)(OC(COC(C)=O)(COC(C)=O)c1ccc(C)c(C)c1)c1ccc(C)c(C)c1
inactive: dose: 50.0 mg/kg/injection, schedule: Q01DX001 (ip), vehicle: saline 97 % of control | [14] 100 % of control | [15] 97 % of control | [16] 100 % of control

O=S1(=O)CC(N2CCCCC2)C12CC1c3ccccc3C2c2ccccc21 (stereo not drawn)
inactive: [3] 104 % of control | [7] 101 % of control | [11] 101 % of control

COc1ccc(CCC(C(=O)O)c2ccc(OC)c(OC)c2)cc1OC (stereo not drawn)
inactive: dose: 45.0 mg/kg/injection, schedule: Q01DX009 (ip), vehicle: Klucel (hydroxypropylcellulose) (HPC) 98 % of control and 100 % of control | dose: 50.0 mg/kg/injection, schedule: Q04DX003 (ip), vehicle: Klucel (hydroxypropylcellulose) (HPC) 96 % of control | dose: 65.0 mg/kg/injection, schedule: Q01DX009 (ip), vehicle: Klucel (hydroxypropylcellulose) (HPC) 93 % of control and 100 % of control | [2] 94 % of control and 104 % of control | [4] 103 % of control | dose: 150.0 mg/kg/injection, schedule: Q01DX009 (ip), vehicle: Klucel (hydroxypropylcellulose) (HPC) 93 % of control and 102 % of control | [6] 106 % of control | [8] 93 % of control and 96 % of control | [10] 101 % of control | [12] 98 % of control

CN(C)N=Nc1cn(C2CC(O)C(CO)O2)c(=O)[nH]c1=O (stereo not drawn)
inactive: dose: 100.0 mg/kg/injection, schedule: Q01DX005 (ip), vehicle: saline 95 % of control | dose: 200.0 mg/kg/injection, schedule: Q01DX005 (ip), vehicle: saline 101 % of control

COC(=O)C1C(=O)C(C(=O)OC)C(C)N(C)C1C (stereo not drawn)
inactive: dose: 9.38 mg/kg/injection, schedule: Q01DX001 (ip), vehicle: other 98 % of control | dose: 18.75 mg/kg/injection, schedule: Q01DX001 (ip), vehicle: other 104 % of control | dose: 37.5 mg/kg/injection, schedule: Q01DX001 (ip), vehicle: other 95 % of control

O=C1NC(c2ccco2)N2C(=O)NC(c3ccco3)N12 (stereo not drawn)
inactive: dose: 100.0 mg/kg/injection, schedule: Q01DX009 (ip), vehicle: gum acacia 90 % of control | dose: 100.0 mg/kg/injection, schedule: Q04DX003 (ip), vehicle: gum acacia 101 % of control | dose: 200.0 mg/kg/injection, schedule: Q01DX009 (ip), vehicle: gum acacia 88 % of control | dose: 200.0 mg/kg/injection, schedule: Q04DX003 (ip), vehicle: gum acacia 95 % of control | dose: 400.0 mg/kg/injection, schedule: Q01DX009 (ip), vehicle: gum acacia 88 % of control | dose: 400.0 mg/kg/injection, schedule: Q04DX003 (ip), vehicle: gum acacia 106 % of control

CCCCCCCCC/C(=N\N=C(N)N)c1ccccc1
inactive: dose: 15.0 mg/kg/injection, schedule: Q01DX Z (ip), vehicle: methylcellulose (MC) 94 % of control | dose: 30.0 mg/kg/injection, schedule: Q01DX Z (ip), vehicle: methylcellulose (MC) 96 % of control | dose: 50.0 mg/kg/injection, schedule: Q01DX Z (oral), vehicle: methylcellulose (MC) 89 % of control | dose: 60.0 mg/kg/injection, schedule: Q01DX Z (ip), vehicle: methylcellulose (MC) 90 % of control | dose: 60.0 mg/kg/injection, schedule: Q01DX Z (oral), vehicle: methylcellulose (MC) 102 % of control | dose: 120.0 mg/kg/injection, schedule: Q01DX Z (ip), vehicle: methylcellulose (MC) 108 % of control | dose: 120.0 mg/kg/injection, schedule: Q01DX Z (oral), vehicle: methylcellulose (MC) 98 % of control | dose: 240.0 mg/kg/injection, schedule: Q01DX Z (ip), vehicle: methylcellulose (MC) 96 % of control | dose: 400.0 mg/kg/injection, schedule: Q01DX Z (oral), vehicle: methylcellulose (MC) 89 % of control | dose: 480.0 mg/kg/injection, schedule: Q01DX Z (ip), vehicle: methylcellulose (MC) 113 % of control | dose: 1000.0 mg/kg/injection, schedule: Q01DX Z (ip), vehicle: methylcellulose (MC) 87 % of control | dose: 1500.0 mg/kg/injection, schedule: Q01DX Z (ip), vehicle: methylcellulose (MC) 100 % of control

CCCC1CC=CCC12C(=O)NC(=O)NC2=O (stereo not drawn)
inactive: [14] 103 % of control | [15] 97 % of control | [16] 97 % of control

Cc1cc(C)nc(N(C)CC(=O)O)n1
inactive: dose: 50.0 mg/kg/injection, schedule: Q04DX002 (ip), vehicle: saline 100 % of control | dose: 100.0 mg/kg/injection, schedule: Q04DX002 (ip), vehicle: saline 95 % of control | dose: 200.0 mg/kg/injection, schedule: Q04DX002 (ip), vehicle: saline 103 % of control

Clc1ccc(Nc2ncnc3ncn(Cc4ccccc4)c23)cc1
inactive: dose: 100.0 mg/kg/injection, schedule: Q01DX001 (ip), vehicle: other 89 % of control | dose: 200.0 mg/kg/injection, schedule: Q01DX001 (ip), vehicle: other 93 % of control | dose: 400.0 mg/kg/injection, schedule: Q01DX001 (ip), vehicle: other 101 % of control

CC(=O)c1cc2ccccc2o1
inactive: dose: 6.25 mg/kg/injection, schedule: Q04DX003 (ip), vehicle: water 103 % of control | dose: 12.5 mg/kg/injection, schedule: Q04DX003 (ip), vehicle: water 109 % of control | [13] 92 % of control | dose: 50.0 mg/kg/injection, schedule: Q04DX003 (ip), vehicle: water 108 % of control | [2] 90 % of control | dose: 100.0 mg/kg/injection, schedule: Q04DX003 (ip), vehicle: water 112 % of control | [6] 95 % of control | dose: 200.0 mg/kg/injection, schedule: Q04DX003 (ip), vehicle: water 123 % of control

c1ccc(CNc2ncnc3c2ncn3Cc2ccccc2)cc1
inactive: [1] 94 % of control | [5] 104 % of control | [9] 98 % of control

Source: PubChem BioAssay AID248 (DTP/NCI, 2004)
